Experimental data: patent US11767295B2, “Isoindole derivative” (TIANJIN HEMAY PHARMACEUTICAL CO., LTD., priority 2018, dated 2023)

Key:
Assay type in all cases: in vivo
[1] = test system: DNCB-induced atopic dermatitis in Balb/c mice; assay: Efficacy evaluation test of DNCB-induced atopic dermatitis in Balb/c mice model (Biological Example 1); conditions: BID × 10; for Inhibitory Rate of Ear Swelling Degree / Inhibitory Rate of Ear Thickness / Ear Thickness Change, Day 1 / Ear Thickness Change, Day 10 / Weight Changes of Animals, Day 10 / Ear Thickness Change, Day 17 / Weight Changes of Animals, Day 17 / Ear Thickness Change, Day 18 / Weight Changes of Animals, Day 18 / Ear Thickness / Ear Swelling Degree / IgE Concentration / Inhibitory Rate of IgE Concentration: 1 mg/mouse on ear; for Inhibitory Rate of Ear Swelling Degree / Inhibitory Rate of Ear Thickness / Ear Thickness / Ear Swelling Degree / IgE Concentration / Inhibitory Rate of IgE Concentration: 18th day; for Inhibitory Rate of Ear Swelling Degree / Inhibitory Rate of Ear Thickness / Inhibitory Rate of IgE Concentration: vs model and blank control; for Weight Changes of Animals, Day 1 / Inhibitory Rate of Ear Thickness / Ear Thickness Change, Day 1 / Ear Thickness Change, Day 10 / Weight Changes of Animals, Day 10 / Ear Thickness Change, Day 17 / Weight Changes of Animals, Day 17 / Ear Thickness Change, Day 18 / Weight Changes of Animals, Day 18 / Ear Thickness: Balb/c mice; for Weight Changes of Animals, Day 1: 1 mg/mouse (50 mg/mL, 20 μL) on ear; for Weight Changes of Animals, Day 1 / Ear Thickness Change, Day 1 / Ear Thickness Change, Day 10 / Weight Changes of Animals, Day 10 / Ear Thickness Change, Day 17 / Weight Changes of Animals, Day 17 / Ear Thickness Change, Day 18 / Weight Changes of Animals, Day 18: Mean ± S.D.; for Ear Thickness: Table 4; for Ear Swelling Degree: right minus left ear piece weight (8 mm punch); for IgE Concentration / Inhibitory Rate of IgE Concentration: serum
Description: 60 healthy male SPF Balb/c mice, each of which the body weight was 19-21 g, were randomly divided into 6 groups by body weight. There were 10 mice in each group.
(§1) Before the test, the hair around the right ear of the mouse was removed to reduce the interference in the drug adhesion to the hair.
(§2) The start of the test was recorded as Day 1. The specific time for measuring ear thickness was slightly adjusted based on FIG. 1. After the end of the 18th day of the test, blood was taken from each animal to detect the concentration of immunoglobulin (IgE) in the serum (in accordance with the kit instructions). Both ears of the animal were cut off. Ear pieces were cut by an 8 mm punch at the fixed position of the ears and weighed. Differences in the swelling degrees of two ears were calculated.
(§3) The changes in mouse ear thickness and the ear weights of the same area and the IgE concentrations in the serum among different groups on the 18th day were analyzed and compared statistically with One-Way Anova in SPSS 17, respectively. The G test method was used to delete outliers. p<0.05 indicated there were statistical differences. Ear swelling degree (mg)=right ear weight (mg)−left ear weight (mg); Ear thickness change (mm)=right ear thickness (mm)−left ear thickness (mm); Inhibitory rate of ear swelling degree (%)=1−(ear swelling degree of drug administration group−ear swelling degree of blank control group)/(ear swelling degree of model control group−ear swelling degree of blank control group)×100%; Inhibitory rate of ear thickness change (%)=1−(ear thickness change of drug administration group−ear thickness change of blank control group)/(ear thickness change of model control group−ear thickness change of blank control group)×100%; Inhibitory rate of IgE (%)=1−(IgE concentration in administration group−IgE concentration in blank control group)/(IgE concentration in model control group−IgE concentration in blank control group)×100%.

[2] = test system: Phorbol ester (TPA)-induced ear swelling in mice; assay: Inhibition of phorbol ester (TPA)-induced ear swelling in mice (Biological Example 4); conditions: ICR mice, 30 mg/mL in acetone, 40 μL in 2 administrations on right ear; 5 hours after TPA modeling
Description: 40 male ICR mice were selected and divided into 5 groups. There were 8 mice in each group.
Before the test, the animals were grouped and the hair around the right ear of the mice was removed.
20 μL of respective drug was applied to the animals in each test group (a blank solvent was applied to the model control group). Modeling and induction were carried out after 1 h 10 min. Except for the blank group, 20 μL of TPA at a concentration of 125 μg/mL were applied to the right ears of the animals for induction. After induction for 10 minutes, 20 μL of respective drug was applied to the right ears of the animals in each test group (a blank solvent was applied to the model control group).
After modeling for 5 hours, ear pieces of both sides on the same location of animals in each group were taken with a punch and weighed to calculate the ear swelling degree, ear swelling rate and inhibitory rate.
The ear swelling degree and ear swelling rate after modeling and administration for 5 hours were analyzed and tested with One-Way ANOVA multiple-group test index in SPSS17.0. P<0.05 indicated there were statistical differences. Ear swelling degree (mg)=right ear weight (mg)−left ear weight (mg); Ear swelling rate (%)=(right ear weight−left ear weight)/left ear weight×100%; Inhibitory rate of ear swelling degree (%)=1−(ear swelling degree of drug administration group−ear swelling degree of blank control group)/(ear swelling degree of model control group−ear swelling degree of blank control group)×100%.

[3] = test system: DNCB-induced atopic dermatitis in Balb/c mice; assay: Efficacy evaluation test of DNCB-induced atopic dermatitis in Balb/c mice model (Biological Example 3); conditions: BID × 11
Description: 30 healthy male SPF Balb/c mice, each of which the weight was 19-21 g, were randomly divided into 3 groups by body weight. There were 10 mice in each group.
as §1
as §2, with “thickness and body weight” for “thickness”, “FIG. 3.” for “FIG. 1.”, “the Day 19” for “the 18th day”, “swelling degree” for “swelling degrees”
as §3, with “of” for “among”, “19th” for “18th”

[4] = 0.1 mg/mouse on ear, 19th day, vs model and blank control

With `CCOc1cc(C(CC(=O)OC)N2C(=O)c3cccc(NC(C)=O)c3C2=O)ccc1OC` (centres unmarked) [Example 1, methyl 3-(4-acetamido-1,3-dioxoisoindolin-2-yl)-3-(3-ethoxy-4-methoxyphenyl)propionate] the “Inhibitory Rate of Ear Swelling Degree” value [1] was 21.3%, the “Weight Changes of Animals, Day 1” value [1] was 21.0 ± 0.8 g and the “Inhibitory Rate of Ear Thickness” value [1] was 22.5%. For the same compound, the “Ear Thickness Change, Day 1” value [1] was 0.22 ± 0.02 mm, the “Ear Thickness Change, Day 10” value [1] was 0.47 ± 0.02 mm and the “Weight Changes of Animals, Day 10” value [1] was 22.4 ± 0.8 g. For the same compound, the “Ear Thickness Change, Day 17” value [1] was 0.60 ± 0.08 mm, the “Weight Changes of Animals, Day 17” value [1] was 21.9 ± 1.1 g and the “Ear Thickness Change, Day 18” value [1] was 0.64 ± 0.07 mm. For the same compound, the “Weight Changes of Animals, Day 18” value [1] was 22.0 ± 1.3 g, the “Ear Thickness” value [1] was 0.64 ± 0.07 mm and the “Ear Swelling Degree” value [1] was 19.9 ± 5.1 mg. The “IgE Concentration” value [1] was 6631.4 ± 1431.1 ng/mL, the “Inhibitory Rate of IgE Concentration” value [1] was 25.6% and the “Inhibitory Rate of Ear Swelling Degree” value [2] was 60.1%.
With `CCOc1cc([C@@H](CC(=O)OC)N2C(=O)c3cccc(NC(C)=O)c3C2=O)ccc1OC` [Example 9, methyl (R)-3-(4-acetamido-1,3-dioxoisoindolin-2-yl)-3-(3-ethoxy-4-methoxyphenyl)propionate] the “Inhibitory Rate of Ear Swelling Degree” value [2] was 54.5%.
In the case of `CCOc1cc([C@H](CC(=O)OC)N2C(=O)c3cccc(NC(C)=O)c3C2=O)ccc1OC` [Example 10, methyl (S)-3-(4-acetamido-1,3-dioxoisoindolin-2-yl)-3-(3-ethoxy-4-methoxyphenyl)propionate], the “Inhibitory Rate of Ear Swelling” value [3, 4] is reported as 38.5%, the “Inhibitory Rate of Ear Thickness” value [3, 4] is reported as 27.1% and the “Weight Changes of Animals, Day 1” value ([3]; Balb/c mice, 0.1 mg/mouse (5 mg/mL, 20 μL) on ear, Day 1, Mean) is reported as 20.5 g. The “Ear Thickness Change, Day 1” value ([3]; Balb/c mice, 0.1 mg/mouse on ear, Day 1, Mean ± S.D.) was 0.26 ± 0.01 mm, the “Weight Changes of Animals, Day 8” value ([3]; Balb/c mice, 0.1 mg/mouse on ear, Day 8, Mean) was 21.8 g and the “Ear Thickness Change, Day 10” value ([3]; Balb/c mice, 0.1 mg/mouse on ear, Day 10, Mean ± S.D.) was 0.52 ± 0.11 mm. The “Weight Changes of Animals, Day 12” value ([3]; Balb/c mice, 0.1 mg/mouse on ear, Day 12, Mean) was 21.9 g, the “Weight Changes of Animals, Day 14” value ([3]; Balb/c mice, 0.1 mg/mouse on ear, Day 14, Mean) was 22.2 g and the “Weight Changes of Animals, Day 16” value ([3]; Balb/c mice, 0.1 mg/mouse on ear, Day 16, Mean) was 22.0 g. For the same compound, the “Ear Thickness Change, Day 17” value ([3]; Balb/c mice, 0.1 mg/mouse on ear, Day 17, Mean ± S.D.) was 0.65 ± 0.09 mm, the “Weight Changes of Animals, Day 19” value ([3]; Balb/c mice, 0.1 mg/mouse on ear, Day 19, Mean) was 22.3 g and the “Ear Thickness Change, Day 19” value ([3]; Balb/c mice, 0.1 mg/mouse on ear, Day 19, Mean ± S.D.) was 0.63 ± 0.05 mm. The “Ear Thickness” value ([3]; Table 11, 0.1 mg/mouse on ear, 19th day) was 0.63 mm, the “Ear Swelling Degree” value ([3]; right minus left ear piece weight, 0.1 mg/mouse on ear, 19th day) was 7.7 mg and the “IgE Concentration” value ([3]; serum, 0.1 mg/mouse on ear, 19th day) was 5543.4 ng/mL. For the same compound, the “Inhibitory Rate of IgE Concentration” value ([3]; serum, 0.1 mg/mouse on ear, 19th day, vs model and blank control) was 29.7%, the “Inhibitory Rate of Ear Swelling Degree” value [1] was 45.7% and the “Weight Changes of Animals, Day 1” value [1] was 20.6 ± 0.8 g. For the same compound, the “Inhibitory Rate of Ear Thickness” value [1] was 58.8%, the “Ear Thickness Change, Day 1” value [1] was 0.21 ± 0.01 mm and the “Ear Thickness Change, Day 10” value [1] was 0.35 ± 0.07 mm. The “Weight Changes of Animals, Day 10” value [1] was 22.3 ± 1.1 g, the “Ear Thickness Change, Day 17” value [1] was 0.46 ± 0.10 mm and the “Weight Changes of Animals, Day 17” value [1] was 21.8 ± 1.3 g. The “Ear Thickness Change, Day 18” value [1] was 0.44 ± 0.07 mm, the “Weight Changes of Animals, Day 18” value [1] was 22.4 ± 1.3 g and the “Ear Thickness” value [1] was 0.44 ± 0.07 mm. The “Ear Swelling Degree” value [1] was 13.7 ± 2.9 mg, the “IgE Concentration” value [1] was 4366.7 ± 1933.9 ng/mL and the “Inhibitory Rate of IgE Concentration” value [1] was 57.5%. The “Inhibitory Rate of Ear Swelling Degree” value [2] was 71.7%.
